Experimental data from US11530229B2, “Cyano cyclobutyl compounds for CBL-B inhibition and uses thereof” (Nurix Therapeutics, Inc., priority 2019, dated 2022).

System: syngeneic TC-1 cell tumor
Assay: Tumor growth response (partial responders), Cbl-b inhibitor plus cancer vaccine, Biological Example 11
Assay type: in vivo, C57BL/6 mice
Settings: significant decrease in tumor volume relative to control mice without Cbl-b inhibitor or vaccine; 10 mice per group
Protocol: In brief, the combination therapy was tested in C57BL/6 mice bearing a syngeneic TC-1 cell tumor. TC-1 cells were derived from primary murine lung cells, which had been transfected with human papillomavirus strain 16 (HPV16) early proteins 6 and 7 (E6 and E7) and an activated human c-Ha-ras oncogene (Lin et al., Cancer Research, 56: 21-26, 1996). Either 2.5×10^4 (first study) or 5.0×10^4 (second study) TC-1 cells (obtained from Johns Hopkins University) were injected subcutaneously into the mid flank of each mouse. Tumors were allowed to grow to 50-100 mm^3 at which time the animals were randomized and treatment was initiated (Day 0). […]
Tumor size was recorded twice a week starting on Day 0 (Day 14 post TC-1 injection) and continued through duration of dosing until humane endpoints were reached between Day 33 and Day 42 (=between Day 47 and Day 56 post TC-1 injection). The level of response was evaluated by comparing tumor growth in the test mice versus the control mice (10 mice per group). In addition, the level of immune activation was assessed by collecting tumors for analysis of tumor infiltrating lymphocytes (TILs) on Day 10 (=Day 24 post TC-1 injection) in test and control mice (6 mice per group). […]

**Q.** How did the partial responders turn out when `Cc1cc(C(=O)Nc2cccc(C3(Cc4nncn4C)COC3)c2)nc(C2CC2)n1` [Compound 60] was run?
**A.** 0/10
